Results on 5 compounds are retold here after patent publication US6861419B2, “Substituted 1, 4-thiazepine and analogs as activators of caspases and inducers of apoptosis and the use thereof” (Cytovia, Inc., priority 2000, dated 2005).

SMILES strings stand for the structures.

Test [1] deals with T-47D. Kind of test: Caspase cascade activation (N-(Ac-DEVD)-N'-ethoxycarbonyl-R110 fluorogenic substrate) in T-47D cells. In kind it is cell-based. Conditions: T47D; human breast cancer cell line T-47D, 24 hours incubation with compound, 3 hour substrate incubation; read-out: Caspase Potency EC50 (nM) T-47D. As for the experimental part:
(§1) Human breast cancer cell lines T-47D and ZR-75-1 were grown according to media component mixtures designated by American Type Culture Collection +10% fetal calf sera (FCS) (Life Technologies, Inc.) in a 5% CO2-95% humidity incubator as 37° C. The T-47 and ZR-75-1 cells were maintained at a cell density between 30 and 80% confluency at a cell density of 0.1 to 0.6×10^6 cells/mL. Cells were harvested at 600 xg and resuspended at 0.65×10^6 cells/mL into appropriate media +10% FCS. An aliquot of 45 μL of cells was added to a well of a 96-well microtiter plate containing 5 μL of a 10% DMSO in RPMI-1640 media solution containing 1.6 to 100 μM of test compound (0.16 to 10 μM final).
(§2) An aliquot of 45 μL of cells was added to a well of a 96-well microtiter plate containing 5 μL of a 10% DMSO in RPMI-1640 media solution without test compound as the control sample. The samples were mixed by agitation and then incubated at 37° C. for 24 hours in a 5% CO2-95% humidity incubator. After incubation, the samples were removed from the incubator and 50 μL of a solution w containing […] of N-(Ac-DEVD)-N′-ethoxycarbonyl-R110 (SEQ ID NO:1) fluorogenic substrate (Cytovia, Inc.; WO99/18856), 20% sucrose (Sigma), 20 mM dithiothreitol (DTT) (Sigma), 200 mM NaCl (Sigma), 40 mM Na piperazine-N,N′-bis[2-ethanesulfonic acid] (PIPES) buffer pH 7.2 (Sigma), and 500 μg/mL lysolecithin (Calbiochem) was added. The samples were mixed by agitation and incubated at room temperature. Using a fluorescent plate reader (Model 1420 Wallac Instruments), an initial reading (T=0) was made approximately 1-2 minutes after addition of the substrate solution, employing excitation at 485 nm and emission at 530 nm, to determine the background fluorescence of the control sample. After the 3 hour incubation, the samples were read for fluorescence as above (T=3 hours).
(§3) The Relative Fluorescence Unit (RFU) values were used to calculate the sample readings as follows: RFU(T=3h)−Control RFU(T=0)=Net RFU(T=3h)
(§4) The level of caspase cascade activation was determined by the ratio of the net RFU value for the test compound to that of the control samples. The EC50 (nM) was determined by a sigmoidal dose-response calculation (Prism 2.0, GraphPad Software, Inc.). The compounds of the invention were determined to have caspase cascade activating effects by proceeding as in Example 8.

Test [2] has as its system ZR-75-1. The test is described as follows: Caspase cascade activation (N-(Ac-DEVD)-N'-ethoxycarbonyl-R110 fluorogenic substrate) in ZR-75-1 cells. Conditions: human breast cancer cell line ZR-75-1, 24 hours incubation with compound, 3 hour substrate incubation; read-out: Caspase Potency EC50 (nM) ZR-75-1. It is filed as cell-based. As for the experimental part: as §1, §2, §3, §4

By EC50 is commonly meant the concentration at which the effect is half-maximal. As for `Cc1ccc(C2CC(c3c(O)cc(C)oc3=O)=Nc3ccccc3S2)cc1` (stereo not shown) [Compound 85, 4-hydroxy-6-methyl-3-(2-p-tolyl-2,3-dihydro-benzo[b][1,4]thiazepin-4-yl)-pyran-2-one], the EC50 in test [1] was found to be 6930 nM; in test [2] it was 4210 nM.
With `COc1cccc(C2CC(c3c(O)cc(C)oc3=O)=NCCS2)c1` (stereo not shown) [Compound 72, 4-hydroxy-3-[7-(3-methoxy-phenyl)-2,3,6,7-tetrahydro-[1,4]thiazepin-5-yl]-6-methyl-pyran-2-one], the EC50 in test [1] was found to be 3050 nM; in test [2] it was 1950 nM.
`Cc1cc(O)c(C2=NCCSC(c3ccccc3Br)C2)c(=O)o1` (stereo not shown) [Compound 74, 3-[7-(2-bromo-phenyl)-2,3,6,7-tetrahydro-[1,4]thiazepin-5-yl]4-hydroxy-6-methyl-pyran-2-one]: the EC50 in test [1] was found to be 3270 nM; in test [2], 2080 nM.
Consider `CSc1ccc(C2CC(c3c(O)cc(C)oc3=O)=NCCS2)cc1` (stereo not shown) [Compound 70, 4-hydroxy-6-methyl-3-[7-(4-methylsulfanyl-phenyl)-2,3,6,7-tetrahydro-[1,4]thiazepin-5-yl]-pyran-2-one], for which the EC50 in test [1] was 345 nM; in test [2] it was 163 nM.
As for `Cc1cc(O)c(C2=NCCSC(c3ccc(Cl)c(Cl)c3)C2)c(=O)o1` (stereo not shown) [Compound 79, 3-[7-(3,4-dichloro-phenyl)-2,3,6,7-tetrahydro-[1,4]thiazepin-5-yl]-4-hydroxy-6-methyl-pyran-2-one], the EC50 stood at 557 nM in test [1] and 349 nM in test [2].
